Assay results: paper PMC9297976 (Journal of Applied Toxicology, 2021)

Key:
[1] = target: T1, medaka Esr1 (mEsr1) (Oryzias latipes, UniProt P50241); test: cell-based; design: species or system Japanese medaka (Oryzias latipes)
T1 sequence (P50241 1-620): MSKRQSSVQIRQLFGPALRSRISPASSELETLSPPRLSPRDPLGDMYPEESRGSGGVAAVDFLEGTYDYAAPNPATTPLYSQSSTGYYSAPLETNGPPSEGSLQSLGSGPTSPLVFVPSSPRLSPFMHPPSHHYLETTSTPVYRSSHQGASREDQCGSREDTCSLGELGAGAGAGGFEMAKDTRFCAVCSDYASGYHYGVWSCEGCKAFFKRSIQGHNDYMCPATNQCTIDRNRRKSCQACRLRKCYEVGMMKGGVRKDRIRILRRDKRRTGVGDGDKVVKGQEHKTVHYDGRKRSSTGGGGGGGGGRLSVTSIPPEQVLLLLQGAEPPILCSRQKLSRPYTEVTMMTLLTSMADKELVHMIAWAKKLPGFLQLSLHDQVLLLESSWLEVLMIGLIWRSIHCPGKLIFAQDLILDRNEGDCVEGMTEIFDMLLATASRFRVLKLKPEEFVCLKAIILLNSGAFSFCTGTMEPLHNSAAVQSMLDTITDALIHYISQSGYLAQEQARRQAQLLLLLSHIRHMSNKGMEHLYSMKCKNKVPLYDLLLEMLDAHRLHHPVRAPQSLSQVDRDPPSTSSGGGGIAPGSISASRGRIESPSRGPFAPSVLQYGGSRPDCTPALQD

[2] = target: T1, medaka Esr1 (mEsr1); test: Medaka Esr1 reporter gene assay, antagonist assay; type: cell-based, Japanese medaka (Oryzias latipes); conditions: E2 spiked at 0.2 nM (A); MAC = 1.0 × 10^−5 M
[3] = target: T2, medaka ARβ (mArβ) (Oryzias latipes, UniProt D1MV73); test: Medaka ARβ reporter gene assay, agonist assay; type: cell-based, Japanese medaka (Oryzias latipes); conditions: MAC = 1.0 × 10^−5 M
T2 sequence (D1MV73 1-744): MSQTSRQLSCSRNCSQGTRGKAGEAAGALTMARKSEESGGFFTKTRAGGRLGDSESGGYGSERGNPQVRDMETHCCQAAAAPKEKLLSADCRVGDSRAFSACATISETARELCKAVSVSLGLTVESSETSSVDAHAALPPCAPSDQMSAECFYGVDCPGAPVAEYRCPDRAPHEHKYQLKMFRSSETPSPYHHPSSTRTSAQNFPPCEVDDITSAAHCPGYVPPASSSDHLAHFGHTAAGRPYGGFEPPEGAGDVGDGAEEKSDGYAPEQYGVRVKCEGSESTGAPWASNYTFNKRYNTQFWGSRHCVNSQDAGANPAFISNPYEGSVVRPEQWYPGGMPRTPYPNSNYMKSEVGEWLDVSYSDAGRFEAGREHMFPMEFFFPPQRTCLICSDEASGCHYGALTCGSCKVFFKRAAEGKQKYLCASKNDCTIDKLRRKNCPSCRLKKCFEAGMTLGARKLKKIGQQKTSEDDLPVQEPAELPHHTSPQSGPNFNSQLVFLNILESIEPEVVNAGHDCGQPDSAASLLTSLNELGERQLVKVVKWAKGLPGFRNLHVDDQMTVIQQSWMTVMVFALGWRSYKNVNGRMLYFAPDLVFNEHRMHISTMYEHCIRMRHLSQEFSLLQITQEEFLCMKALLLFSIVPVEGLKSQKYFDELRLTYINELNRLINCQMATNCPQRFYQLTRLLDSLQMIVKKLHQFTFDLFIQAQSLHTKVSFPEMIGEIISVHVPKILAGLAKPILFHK

[4] = target: T2, medaka ARβ (mArβ); test: Medaka ARβ reporter gene assay, antagonist assay; type: cell-based, Japanese medaka (Oryzias latipes); conditions: 11‐KT spiked at 50 nM (D); MAC = 1.0 × 10^−5 M
[5] = system: Japanese medaka (Oryzias latipes); test: Fish Short‐Term Reproduction Assay; type: in vivo; conditions: for GSI Female / GSI Male / HSI Female / HSI Male / Length Female / Length Male / Weight Female / Weight Male: completion of exposure
[6] = 2.94 mg/L measured, 21 d, sig. ↑ vs control
[7] = 2.94 mg/L measured, 21 d, sig. ↓ vs control
[8] = measured concentration 0.311 mg/L
[9] = measured concentration 0.926 mg/L
[10] = measured concentration 2.94 mg/L

With `CCCOC(=O)c1ccc(O)cc1` [PPB, 4‐Hydroxybenzoate propyl] the EC50 [1] was 7 µM, the “In vitro positive: Esr” value ([1]; mode of action in which EC50 or PC10 was obtained in RGA) was “Esr” and the Antagonistic activity [2] was “NE (MAC = 1.0 × 10^−5 M)^(A)”. The Agonistic activity [3] was “NE (MAC = 1.0 × 10^−5 M)”, the Antagonistic activity [4] was “NE (MAC = 1.0 × 10^−5 M)^(D)” and the Fertility rate ([5]; 0.311 mg/L measured, 21 d) was 93 ± 3.1%. The “Hepatic VTG, female” value ([5]; 0.311 mg/L measured, 21 d) was 1,190 ± 238 ng/mg‐liver, the Mortality ([5]; 0.311 mg/L measured, 21 d) was 0.0% and the “Mortality, number of dead fish” value ([5]; 0.311 mg/L measured, 21 d) was 0. For the same compound, the “Number of fertilized eggs (per female per day)” value ([5]; 0.311 mg/L measured, 21 d) was 26 ± 0.8, the “Number of total eggs (per female per day)” value ([5]; 0.311 mg/L measured, 21 d) was 28 ± 1.6 and the “SSC female (joint plates with papillary processes)” value (“SSC female” for short) ([5]; 0.311 mg/L measured, 21 d) was 0 ± 0. For the same compound, the “Hepatic VTG, male” value ([5]; 0.311 mg/L measured, 21 d, sig. ↑ vs control) was 23.7 ± 9.0 ng/mg‐liver, the Fertility rate ([5]; 0.926 mg/L measured, 21 d) was 94 ± 3.7% and the “Hepatic VTG, female” value ([5]; 0.926 mg/L measured, 21 d) was 1,590 ± 271 ng/mg‐liver. For the same compound, the Mortality ([5]; 0.926 mg/L measured, 21 d) was 0.0%, the “Mortality, number of dead fish” value ([5]; 0.926 mg/L measured, 21 d) was 0 and the “Number of total eggs (per female per day)” value ([5]; 0.926 mg/L measured, 21 d) was 23 ± 2.0. For the same compound, the “SSC female” value ([5]; 0.926 mg/L measured, 21 d) was 0 ± 0, the “Hepatic VTG, male” value ([5]; 0.926 mg/L measured, 21 d, sig. ↑ vs control) was 42.2 ± 36.8 ng/mg‐liver and the “Number of fertilized eggs (per female per day)” value ([5]; 0.926 mg/L measured, 21 d, sig. ↓ vs control) was 22 ± 1.6. The Mortality ([5]; 2.94 mg/L measured, 21 d) was 0.0%, the “Mortality, number of dead fish” value ([5]; 2.94 mg/L measured, 21 d) was 0 and the “SSC female” value ([5]; 2.94 mg/L measured, 21 d) was 0 ± 0. For the same compound, the “Hepatic VTG, female” value [5, 6] was 3,540 ± 1,080 ng/mg‐liver, the “Hepatic VTG, male” value [5, 6] was 4,170 ± 513 ng/mg‐liver and the Fertility rate [5, 7] was 41 ± 23%. The “Number of total eggs (per female per day)” value [5, 7] was 10 ± 4.7, the “Change of hepatic VTG levels in females (in words)” value ([5]; 21 d) was “significant increase” and the “Fecundity, number of total eggs (in words)” value ([5]; 21 d) was “statistically significant decrease”. For the same compound, the “LOEC, elevated hepatic VTG in males” value ([5]; 21 d) was 0.311 mg/L, the LOECREPRO ([5]; LOEC on reproduction (fecundity and/or fertility)) was 926 µg/L and the minimal effective concentration ([5]; Oryzias latipes, 504 h, read-out: LOECmVTG) was 0.311 µg/mL. The “LOECREPRO (reduction in fecundity or fertility)” value ([5]; concentrations without overt toxicity) was 926 µg/L, the LOECTOX ([5]; lowest observed effect concentration on mortality) was “ND (>2,940) μg/L” and the “GSI Female” value [5, 8] was 10.0 ± 0.2%. The “GSI Male” value [5, 8] was 0.74 ± 0.14%, the “HSI Female” value [5, 8] was 5.4 ± 0.75% and the “HSI Male” value [5, 8] was 2.7 ± 0.98%. For the same compound, the “Length Female” value [5, 8] was 36.1 ± 0.2 mm, the “Length Male” value [5, 8] was 36.4 ± 1.3 mm and the “Weight Female” value [5, 8] was 525 ± 27 mg. The “Weight Male” value [5, 8] was 525 ± 13 mg, the “GSI Female” value [5, 9] was 9.9 ± 1.1% and the “GSI Male” value [5, 9] was 0.78 ± 0.05%. For the same compound, the “HSI Female” value [5, 9] was 5.1 ± 0.20%, the “HSI Male” value [5, 9] was 2.7 ± 0.23% and the “Length Female” value [5, 9] was 36.8 ± 0.8 mm. For the same compound, the “Length Male” value [5, 9] was 37.1 ± 1.7 mm, the “Weight Female” value [5, 9] was 539 ± 21 mg and the “Weight Male” value [5, 9] was 515 ± 49 mg. For the same compound, the “GSI Female” value [5, 10] was 10.0 ± 1.1%, the “GSI Male” value [5, 10] was 0.81 ± 0.21% and the “HSI Female” value [5, 10] was 4.3 ± 0.77%. The “HSI Male” value [5, 10] was 2.3 ± 0.14%, the “Length Female” value [5, 10] was 36.5 ± 1.5 mm and the “Length Male” value [5, 10] was 36.5 ± 0.9 mm. For the same compound, the “Weight Female” value [5, 10] was 549 ± 83 mg and the “Weight Male” value [5, 10] was 490 ± 26 mg.
